Measurements published in patent publication US9676754B2, “Triazolone compounds and uses thereof” (Inception 2, Inc., priority 2012, dated 2017).
Read-outs that look alike come from different tables or passages of the source.

What was measured:
Human PPARα = target: T1, Human PPARα (Homo sapiens, UniProt Q07869); assay: Human PPARα Reporter Assay (luciferase); format: cell-based
T1 construct: host or cells: proprietary non-human mammalian cells
T1 sequence (Q07869 1-468): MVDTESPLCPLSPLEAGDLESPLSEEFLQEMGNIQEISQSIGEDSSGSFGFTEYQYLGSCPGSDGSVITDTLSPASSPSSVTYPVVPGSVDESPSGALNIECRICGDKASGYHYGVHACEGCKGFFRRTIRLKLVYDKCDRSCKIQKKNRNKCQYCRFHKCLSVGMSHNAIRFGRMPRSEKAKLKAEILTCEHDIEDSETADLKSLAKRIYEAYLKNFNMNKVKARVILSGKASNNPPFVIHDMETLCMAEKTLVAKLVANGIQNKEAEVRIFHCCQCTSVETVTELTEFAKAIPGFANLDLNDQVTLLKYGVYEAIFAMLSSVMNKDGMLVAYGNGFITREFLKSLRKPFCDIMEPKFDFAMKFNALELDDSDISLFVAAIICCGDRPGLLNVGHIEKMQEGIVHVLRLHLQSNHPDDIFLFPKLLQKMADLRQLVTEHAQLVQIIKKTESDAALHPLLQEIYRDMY
Procedure: Human PPARα Reporter Assay
The screening of test compounds for agonist or antagonist activities against human PPARα receptors was performed using a commercial kit, Human PPARα Reporter Assay System (Indigo Biosciences, Cat. #IB00111).
This nuclear receptor assay system utilizes proprietary non-human mammalian cells engineered to provide constitutive, high-level expression of Human PPARα. Because these cells incorporate a PPARα-responsive luciferase reporter gene, quantifying expressed luciferase activity provides a sensitive surrogate measure of PPARα activity in the treated cells. The primary application of this reporter assay system is in the screening of test samples to quantify any functional activity, either agonist or antagonist, that they may exert against human PPARα. […] Briefly, the reporter cells are dispensed into wells of the assay plate and then immediately dosed with test compounds. Following an overnight incubation, the treatment media are discarded and Luciferase Detection Reagent (LDR) is added. The intensity of light emission from the ensuing luciferase reaction provides a sensitive measure that is directly proportional to the relative level of PPARα activation in the reporter cells.

Thyroid Receptor β = target: T2, Thyroid Receptor β (Homo sapiens, UniProt P10828); assay: Target selectivity counterscreen, Thyroid Receptor β reporter assay; format: cell-based; conditions: receptor agonist at ~EC80
T2 construct: host or cells: engineered reporter cells of the kit
T2 sequence (P10828 1-461): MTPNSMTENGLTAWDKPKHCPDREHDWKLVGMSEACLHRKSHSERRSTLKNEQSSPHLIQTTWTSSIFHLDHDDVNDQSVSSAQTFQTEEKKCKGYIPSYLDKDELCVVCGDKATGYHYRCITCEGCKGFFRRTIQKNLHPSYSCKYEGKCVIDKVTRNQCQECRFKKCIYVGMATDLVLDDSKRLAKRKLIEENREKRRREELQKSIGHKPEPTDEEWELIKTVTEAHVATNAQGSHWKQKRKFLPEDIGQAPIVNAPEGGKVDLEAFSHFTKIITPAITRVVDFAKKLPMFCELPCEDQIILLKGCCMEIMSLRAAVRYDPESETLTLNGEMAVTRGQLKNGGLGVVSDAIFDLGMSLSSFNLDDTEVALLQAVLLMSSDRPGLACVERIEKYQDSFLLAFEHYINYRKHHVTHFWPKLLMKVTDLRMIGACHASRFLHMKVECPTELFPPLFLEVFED
Procedure: Target Selectivity Assays
To determine species selectivity, a Mouse PPARα Reporter Assay System was used (Indigo Biosciences, Cat. #M00111). Activity of test compounds to antagonize or agonize other isoforms of human PPAR, for example β/δ and γ, were assessed using the corresponding kits from Indigo Biosciences (Cat. #IB00121 and #IB00101, respectively). In addition to PPAR activity, compounds were also screened for activity against other nuclear hormone receptors including Estrogen Receptor β, Glucocorticoid Receptor and Thyroid Receptor β using commercially available kits (Indigo Biosciences, Cat. #IB00411, IB00201 and IB01101, respectively). Each assay system from Indigo Biosciences uses technology analogous to the human PPARα kit, with the variance being that the cells used for each assay were engineered to over-express the receptor of interest. In addition, the appropriate receptor agonist (included with each kit) was used at ˜EC80 for assays in which antagonist potency was being assessed.

IC50 (Human PPARα; antagonist activity, luciferase reporter cells, overnight incubation, read-out: Human PPARα Reporter Assay-Luciferase IC50): 0.058 µM
IC50 (Human PPARα; counterscreen assay results table, read-out: PPAR alpha IC50): 0.058 µM
IC50 (Thyroid Receptor β): 30.8 µM
Compound: CCOc1ccc(-c2cccc(CCCc3nn(Cc4ccc(C(C)(C)C)cc4)c(=O)n3CC)c2)cc1CC(=O)O [Example 6, 2-(3′-(3-(1-(4-(tert-Butyl)benzyl)-4-ethyl-5-oxo-4,5-dihydro-1H-1,2,4-triazol-3-yl)propyl)-4-ethoxy-[1,1′-biphenyl]-3-yl)acetic acid]
